This assay relates to KMS-11 cells (human multiple myeloma cell). Kind of assay: Antitumor effect against KMS-11 cells transplanted subcutaneously into SCID mice (tumor volume V/V0, T/C). The assay is classed as in vivo. The following applies: SCID mouse, KMS-11 xenograft, KM8969 1 mg/kg, L-PAM 3 mg/kg, tail vein. How it is done:
Ten days after the cell transplantation, a diameter of a tumor was measured with calipers, and a tumor volume was calculated using the following formula.
(Formula) Tumor volume=short diameter×short diameter […]×0.5
Individuals having the tumor volume within the range of 140 to 184 mm^3 were selected, and grouped such that the average of tumor volume was to be almost the same. Each of following administration groups A to D was administered to the mice. Incidentally, the grouped day was defined as Day 0.
C. Group administering Melphalan (hereinafter referred to as L-PAM; Sigma) solely: 3 mg/kg was administered on Day 0 and Day 7.
With time, the tumor volume was measured. The antitumor effect was evaluated by comparing average values of a tumor volume change (V/V0) when the tumor volume on Day 0 in each group was defined as V0.

For the compound `N[C@@H](Cc1ccc(N(CCCl)CCCl)cc1)C(=O)O` [L-PAM, Melphalan], the “T/C (V/V0 of group divided by V/V0 of negative control group)” value was found to be 1.0000 (Day 0); 0.8624 (Day 4); 0.8354 (Day 7); 0.6430 (Day 10); 0.5255 (Day 14); 0.4159 (Day 17). Besides, the “T/C (V/V0 of group divided by V/V0 of negative control group)” value worked out at 0.2881 (Day 21), 0.2872 (Day 24) and 0.2348 (Day 28).

These data come from patent publication US20100111947A1, “PHARMACEUTICAL COMPOSITION COMPRISING ANTIBODY COMPOSITION WHICH SPECIFICALLY BINDS TO GANGLIOSIDE GM2” (KYOWA HAKKO KIRIN CO., LTD., priority 2008, published 2010).
